Results published in publication PMC12497685, “Anticoronavirus Isoquinoline Alkaloids: Unraveling the Secrets of Their Structure–Activity Relationship” (Influenza and Other Respiratory Viruses, 2025).
“And” between values parts separate entries of the source, which are not always exact repeats. Identical values can stand only once. Like-named read-outs stand apart in the source and are kept apart here.

Experiments:
[1] = tested on: HCoV‐229E; experiment: microbe, parasite or virus in culture; type: cell-based; conditions: n = 1; for inhibition at 10 µM: Human coronavirus 229E, Huh-7, read-out: Protective effects HCoV-229E %
[2] = tested on: Huh7 cells; conditions: n = 1
[3] = at 10 μM, compared with vehicle control, Huh7 cells
[4] = at 10 μM, compared with vehicle control
[5] = tested at 1 μM due to low solubility in DMSO

Compound | inhibition at 10 µM [1, 3] | Cytotoxicity to the host Huh7 cells % [2, 4] | Protective effects HCoV-229E % [1, 3] | Protective effects HCoV-229E % [1, 5] | Cytotoxicity to the host Huh7 cells % [2, 5]
COc1ccc2c(c1OC)C(=O)O[C@@H]2[C@H]1c2c(cc3c(c2OC)OCO3)CCN1C [Compound 55, (−)‐narcotine] | < 20% | 20% | – | – | –
CN1CCC2=C[C@H](O)[C@H]3OC(=O)c4cc5c(cc4[C@H]3[C@@H]21)OCO5 [Compound 12, hippeastrine] | – | 25% | — (Not active (insignificant protective effects below 20%)) | – | –
COc1cc2c(cc1OC)[C@H]1[C@@H](C)c3ccc(OC)c(OC)c3CN1CC2 [Compound 31, (+)‐corydaline] | – | — (Non-toxic (insignificant cytotoxic effects, below 20%)) | — (Not active (insignificant protective effects below 20%)) | – | –
COc1cc2c(cc1OC)C1Cc3ccc4c(c3CN1CC2)OCO4 (stereo not drawn) [Compound 43, (−)‐sinactine] | – | — (Non-toxic (insignificant cytotoxic effects, below 20%)) | — (Not active (insignificant protective effects below 20%)) | – | –
COc1cc2c(cc1OC)-c1c(OC)c(OC)cc3c1[C@H](C2)N(C)CC3 [Compound 47, glaucine] | < 20% | — (Non-toxic (insignificant cytotoxic effects, below 20%)) | – | – | –
COc1cc2c(cc1O)[C@@H]1Cc3ccc(OC)c(O)c3CN1CC2 [Compound 33, (−)‐scoulerine] | – | 40% and 35%–40% | — (Not active (insignificant protective effects below 20%)) | – | –
O[C@H]1C=C[C@@]23CCN(Cc4cc5c(cc42)OCO5)[C@@H]3C1 [Compound 14, (−)‐crinine] | – | — (Non-toxic (insignificant cytotoxic effects, below 20%)) | — (Not active (insignificant protective effects below 20%)) | – | –
COc1cc2c(cc1OC)C1(Cc3ccc4c(c3C1OC(C)=O)OCO4)N(C)CC2 (stereo not drawn) [Compound 39, (−)‐O‐methylfumarophycine] | – | — (Non-toxic (insignificant cytotoxic effects, below 20%)) | — (Not active (insignificant protective effects below 20%)) | – | –
COc1ccc2c(c1O)-c1c(OC)c(OC)cc3c1[C@H](C2)NCC3 [Compound 57, norisocoridine] | – | — (Non-toxic (insignificant cytotoxic effects, below 20%)) | — (Not active (insignificant protective effects below 20%)) | – | –
O=C1c2ccccc2-c2c3c(cc4ccnc1c24)OCO3 [Compound 62, liriodenine] | < 20% | — (Non-toxic (insignificant cytotoxic effects, below 20%)) | – | – | –
COc1cc2c(cc1OC)-c1c(OC)c(OC)cc3ccnc(c13)C2=O [Compound 61, oxoglaucine] | < 20% | — (Non-toxic (insignificant cytotoxic effects, below 20%)) | – | – | –
COc1cc2c(cc1OC)[C@H]1[C@H]3C(=CC[C@H]1OC2=O)CCN3C [Compound 10, homolycorine] | 40% | — (Non-toxic (insignificant cytotoxic effects, below 20%)) | – | – | –
COc1cc2c(cc1OC)[C@@H](O)O[C@@H]1CC=C3CCN(C)[C@H]3[C@H]21 [Compound 7, lycorenine] | – | 20% | — (Not active (insignificant protective effects below 20%)) | – | –
seco‐isopowellaminone [Compound 6] | – | 20% | — (Not active (insignificant protective effects below 20%)) | – | –
(±)‐O‐methylfumarofine [Compound 44] | – | — (Non-toxic (insignificant cytotoxic effects, below 20%)) | — (Not active (insignificant protective effects below 20%)) | – | –
COc1cc2c(cc1O)C1(Cc3ccc4c(c3C1O)OCO4)N(C)CC2 (stereo not drawn) [Compound 40, (−)‐fumaritine] | – | – | – | — (Not active (insignificant protective effects below 20%)) | — (Non-toxic (insignificant cytotoxic effects, below 20%))
COC1=CC=C2[C@H]3Cc4ccc(OC)c5c4[C@@]2(CCN3C)[C@H]1O5 [Compound 54, thebaine] | < 20% | — (Non-toxic (insignificant cytotoxic effects, below 20%)) | – | – | –
COc1cc2c(cc1Oc1c3c(cc(OC)c1OC)CCN(C)C3)C(Cc1ccc(O)cc1)N(C)CC2 (stereo not drawn) [Compound 20, (−)‐muraricine] | – | — (Non-toxic (insignificant cytotoxic effects, below 20%)) | 50% | – | –

Compound | inhibition at 10 µM [1, 3] | Cytotoxicity to the host Huh7 cells % [2, 4] | Protective effects HCoV-229E % [1, 3] | Protective effects HCoV-229E % [1, 5] | Cytotoxicity to the host Huh7 cells % [2, 5]
O[C@H]1C=C[C@@]23c4cc5c(cc4CN(C[C@@H]2O)[C@H]3C1)OCO5 [Compound 2, (+)‐hamayne] | – | — (Non-toxic (insignificant cytotoxic effects, below 20%)) | — (Not active (insignificant protective effects below 20%)) | – | –
(−)‐fumarophycine hydrochloride [Compound 37] | – | — (Non-toxic (insignificant cytotoxic effects, below 20%)) | — (Not active (insignificant protective effects below 20%)) | – | –
COc1ccc2c(c1OC)CN(C)CCc1cc3c(cc1C(=O)C2)OCO3 [Compound 29, Allocryptopine] | < 20% | — (Non-toxic (insignificant cytotoxic effects, below 20%)) | – | – | –
COc1cc2c(cc1OC)[C@@]1(Cc3ccc4c(c3[C@@H]1O)OCO4)N(C)CC2 [Compound 38, (−)‐fumaricine] | – | — (Non-toxic (insignificant cytotoxic effects, below 20%)) | — (Not active (insignificant protective effects below 20%)) | – | –
COc1cc2c(cc1O)[C@@H]1Cc3cc4c(cc3[C@H](C2)N1C)OCO4 [Compound 34, (−)‐caryachine] | – | — (Non-toxic (insignificant cytotoxic effects, below 20%)) | — (Not active (insignificant protective effects below 20%)) | – | –
COc1ccc2cc3n(c(=O)c2c1OC)CCc1cc2c(cc1-3)OCO2 [Compound 22, 8‐oxoberberine] | – | — (Non-toxic (insignificant cytotoxic effects, below 20%)) | — (Not active (insignificant protective effects below 20%)) | – | –
CN1CCc2cc3c(cc2[C@H]1[C@@H]1OC(=O)c2c1ccc1c2OCO1)OCO3 [Compound 46, (+)‐bicuculline] | – | — (Non-toxic (insignificant cytotoxic effects, below 20%)) | — (Not active (insignificant protective effects below 20%)) | – | –
N‐methyllaurotetanine [Compound 56] | – | — (Non-toxic (insignificant cytotoxic effects, below 20%)) | — (Not active (insignificant protective effects below 20%)) | – | –
COc1cc2c(cc1O)[C@@H]1[C@H](O)[C@@H](OC)C=C3CCN(C2)[C@H]31 [Compound 4, 9‐O‐demethylgalanthine] | – | — (Non-toxic (insignificant cytotoxic effects, below 20%)) | — (Not active (insignificant protective effects below 20%)) | – | –
CO[C@@H]1C=C[C@@]23c4cc5c(cc4CO[C@]2(O)CN(C)[C@H]3C1)OCO5 [Compound 5, (+)‐tazettine] | – | — (Non-toxic (insignificant cytotoxic effects, below 20%)) | — (Not active (insignificant protective effects below 20%)) | – | –
COc1cc2c(cc1OC)C1Cc3cc(OC)c(OC)cc3[C@H](C2)N1C [Compound 23, argemonine] | – | — (Non-toxic (insignificant cytotoxic effects, below 20%)) | — (Not active (insignificant protective effects below 20%)) | – | –
COC1=C[C@]23CCN(C)[C@H](Cc4ccc(OC)c(O)c42)C3=CC1=O [Compound 59, (−)‐salutaridine] | – | — (Non-toxic (insignificant cytotoxic effects, below 20%)) | — (Not active (insignificant protective effects below 20%)) | – | –
COc1cc2c(cc1OC)C1Cc3ccc(OC)c(O)c3C(C2)N1C (stereo not drawn) [Compound 24, (−)‐platycerine] | – | — (Non-toxic (insignificant cytotoxic effects, below 20%)) | — (Not active (insignificant protective effects below 20%)) | – | –
O[C@H]1[C@H]2c3cc4c(cc3CN3CCC(=C[C@@H]1O)[C@H]23)OCO4 [Compound 9, lycorine] | < 20% | — (Non-toxic (insignificant cytotoxic effects, below 20%)) | – | – | –
CCOC1c2c(ccc3c2OCO3)-c2ccc3cc4c(cc3c2N1C)OCO4 (stereo not drawn) [Compound 51, 6‐ethoxydihydrosanguinarine] | – | 90% and > 80% | — (Not active (insignificant protective effects below 20%)) | – | –
COc1cc2c(cc1OC)C(=O)Cc1ccc3c(c1CN(C)CC2)OCO3 [Compound 45, cryptopine] | – | — (Non-toxic (insignificant cytotoxic effects, below 20%)) | — (Not active (insignificant protective effects below 20%)) | – | –
(+)‐thalictricavine [Compound 27] | – | – | — (Not active (insignificant protective effects below 20%)) | – | –
